Columns and labels:
[1] = tested on: GFP-14-3-3β and its binding proteins; experiment: GFP-14-3-3β co-IP with LC-MS/MS label-free quantification, untreated versus PP1c-treated; design: species or system human
Procedure: (§1) HeLa Kyoto cells expressing transiently transfected pEGFP(C1)-14-3-3β or pEGFP(C1) control plasmid, were incubated with 20 nM Calyculin A (# 9902 S, Cell Signaling Technology) for 12 min. Cells were washed twice on ice with cold PBS and after addition of 500 µL lysis buffer (100 mM NaCl, 10 mM Tris, 0.1% IGEPAL, 1 mM EDTA, 1 mM EGTA, 20 nM Calyculin A, 1x cOmplete Mini protease inhibitor cocktail (Sigma), 1 mM DTT, 1 mM MnCl2) cells were scraped from plates, lysed by 10 pushes through an injection needle (21 G, BD) and the insoluble fraction was pelleted by centrifugation (10 min, 10^4 rcf, 4 °C). Supernatants were then subjected to incubation with 1 µM recombinant phosphatase or buffer for 1 h at 30 °C. Next, we subjected samples to immunoprecipitation using α-GFP nanobodies covalently coupled to agarose beads (2 h, 4 °C, obtained from the EMBL PEPcore Core Facility). Beads were then washed three times with lysis buffer and samples were eluted in 1x LDS sample buffer (Thermo Fisher Scientific) by heating to 70 °C for 10 min.
(§2) The samples were then reduced with 25 mM dithiothreitol (10 min at 70 °C) and alkylated with 55 mM chloroacetamide (room temperature, 30 min, in the dark). Proteins were run on a precast 4–12% NuPAGE gel (ThermoFisher Scientific) for about 1 cm to concentrate the sample prior to in-gel tryptic digestion, which was performed according to the standard procedures. The peptides obtained were dried to completeness and resuspended in 12 µL of buffer A (0.1% FA), and 5 µL of sample were injected per MS measurement. The experiment was carried out in three independent replicates.
(§3) The samples were analyzed by LC-MS/MS on a Dionex Ultimate 3000 nano-HPLC coupled online to a Fusion Lumos Tribrid mass spectrometer (Thermo Fisher Scientific). Peptides were delivered to a trap column (75 µm × 2 cm, packed in-house with 5 µm C18 resin; Reprosil PUR AQ, Dr. Maisch) and washed using 0.1% FA at a flow rate of 5 µL/min for 10 min. Subsequently, peptides were transferred to an analytical column (75 µm × 45 cm, packed in-house with 3 µm C18 resin; Reprosil Gold) applying a flow rate of 300 nL/min and separated using a 60 min linear gradient from 4% to 32% LC solvent B (0.1% FA, 5% DMSO in ACN) in LC solvent A (0.1% FA in 5% DMSO). The eluate from the analytical column was sprayed via a stainless steel emitter (Thermo Fisher Scientific) at a source voltage of 2.1 kV into the mass spectrometer. The transfer capillary was heated to 275 °C. The Fusion Lumos was operated in positive ionization mode and data-dependent acquisition (DDA), automatically switching between MS1 and MS2 spectrum acquisition. Full scan MS1 spectra were recorded in the Orbitrap from 360 to 1300 m/z at a resolution of 60k (automatic gain control (AGC) target value of 4e5 charges, maximum injection time (maxIT) of 50 ms). Up to 20 peptide precursors were isolated (isolation window, 1.7 m/z; maximum injection time, 25 ms; and AGC value, 1e5), fragmented by high-energy collision-induced dissociation (HCD) using 30% normalized collision energy (NCE), and analyzed at a resolution of 15k in the Orbitrap. Precursor ions that were singly charged, unassigned, or with charge states >6+ were excluded. The dynamic exclusion duration of fragmented precursor ions was 20 s.
(§4) Peptide and protein identification and LFQ were performed using MaxQuant software (version 1.6.1.0)[64] by searching the data against all canonical protein sequences as annotated in the Swissprot reference database (human proteins only, 20193 entries, downloaded 22 March 2016, internally annotated with PFAM domains) using the embedded search engine Andromeda[65]. The MaxQuant search was performed using two variable modifications; oxidation of methionine and N-terminal protein acetylation. Carbamidomethylation on cysteines was specified as a fixed modification. Trypsin (Trypsin/P) was specified as the proteolytic enzyme with up to two allowed missed cleavage sites.

GFP-14-3-3β = GFP-14-3-3β co-IP with LC-MS/MS, untreated GFP-14-3-3β versus GFP control (14-3-3 interactome); type: binding, human
Procedure: as §1, §2, §3, §4

[2] = PP1 vs untreated, LFQ intensities, replicates 1-3
[3] = untreated vs GFP, LFQ intensities, replicates 1-3
[4] = pairwise comparison PP1 vs untreated, student's t-test, 3 replicates each, LC-MS/MS label-free quantification
[5] = pairwise comparison untreated GFP-14-3-3β vs GFP, student's t-test, 3 replicates each, LC-MS/MS label-free quantification
[6] = GFP-14-3-3β co-IP LC-MS/MS, PP1 vs untreated, student's t-test, label-free quantification, 3 replicates each
[7] = GFP-14-3-3β co-IP LC-MS/MS, untreated vs GFP, student's t-test, label-free quantification, 3 replicates each
[8] = PP1 vs untreated, LFQ intensities, 3 replicates each
[9] = untreated vs GFP, LFQ intensities, 3 replicates each
[10] = PP1 vs untreated, label-free quantification
[11] = untreated vs GFP, label-free quantification
[12] = log2 difference, pairwise comparison PP1 vs untreated, label-free quantification, 3 replicates each
[13] = log2 difference, pairwise comparison untreated vs GFP, label-free quantification, 3 replicates each

LGALS3
Difference (log2), PP1 vs untreated [1, 2]: -0.9155 log2
Difference (log2), untreated vs GFP (GFP-14-3-3β; [3]): 0.3389 log2

SRSF1
Difference (log2), PP1 vs untreated [1, 4]: -3.492 log2
Difference (log2), untreated vs GFP (GFP-14-3-3β; [5]): 4.313 log2

NUP210
Difference (log2), PP1 vs untreated [1, 2]: -1.109 log2
Difference (log2), untreated vs GFP (GFP-14-3-3β; [3]): 2.632 log2

TRIM29
Difference (log2), PP1 vs untreated [1, 6]: -0.3516 log2
Difference (log2), untreated vs GFP (GFP-14-3-3β; [7]): 0.4899 log2

DOCK11
Difference (log2), PP1 vs untreated [1, 2]: -1.861 log2
Difference (log2), untreated vs GFP (GFP-14-3-3β; [3]): 2.579 log2

PKM
Difference (log2), PP1 vs untreated [1, 2]: -1.659 log2
Difference (log2), untreated vs GFP (GFP-14-3-3β; [3]): 0.471 log2

HSPA5
Difference (log2), PP1 vs untreated [1, 6]: -0.6263 log2
Difference (log2), untreated vs GFP (GFP-14-3-3β; [7]): -0.3432 log2

PCNT
Difference (log2), PP1 vs untreated [1, 6]: -0.6422 log2
Difference (log2), untreated vs GFP (GFP-14-3-3β; [7]): 1.216 log2

CAD
Difference (log2), PP1 vs untreated [1, 6]: -0.6324 log2
Difference (log2), untreated vs GFP (GFP-14-3-3β; [7]): 0.93 log2

FASN
Difference (log2), PP1 vs untreated [1, 8]: 0.3561 log2
Difference (log2), untreated vs GFP (GFP-14-3-3β; [9]): 1.462 log2

SVIL
Difference (log2), PP1 vs untreated [1, 10]: 0.892 log2
Difference (log2), untreated vs GFP (GFP-14-3-3β; [11]): -1.069 log2

VPS13D
Difference (log2), PP1 vs untreated [1, 4]: -2.609 log2
Difference (log2), untreated vs GFP (GFP-14-3-3β; [5]): 3.223 log2

SSRP1
Difference (log2), PP1 vs untreated [1, 10]: 0.7419 log2
Difference (log2), untreated vs GFP (GFP-14-3-3β; [11]): 1.339 log2

DDX6
Difference (log2), PP1 vs untreated [1, 6]: -0.3213 log2
Difference (log2), untreated vs GFP (GFP-14-3-3β; [7]): 1.378 log2

YES1
Difference (log2), PP1 vs untreated [1, 2]: -0.8848 log2
Difference (log2), untreated vs GFP (GFP-14-3-3β; [3]): -0.5463 log2

RFC5
Difference (log2), PP1 vs untreated [1, 12]: 1.3455
Difference (log2), untreated vs GFP (GFP-14-3-3β; [13]): -0.3031

LANCL1
Difference (log2), PP1 vs untreated [1, 2]: -1.493 log2
Difference (log2), untreated vs GFP (GFP-14-3-3β; [3]): -0.5316 log2

CLASP1
Difference (log2), PP1 vs untreated [1, 6]: -0.7054 log2
Difference (log2), untreated vs GFP (GFP-14-3-3β; [7]): 1.4296 log2

MED1
Difference (log2), PP1 vs untreated [1, 10]: 1.148 log2
Difference (log2), untreated vs GFP (GFP-14-3-3β; [11]): 0.09613 log2

FBXO22
Difference (log2), PP1 vs untreated [1, 4]: -4.621 log2
Difference (log2), untreated vs GFP (GFP-14-3-3β; [5]): 0.4281 log2

MTCL1
Difference (log2), PP1 vs untreated ([1]; pairwise comparison PP1 vs untreated): 0.08295 log2
Difference (log2), untreated vs GFP (GFP-14-3-3β; pairwise comparison untreated vs GFP): 0.986 log2

ASCC3
Difference (log2), PP1 vs untreated [1, 8]: 0.6228 log2
Difference (log2), untreated vs GFP (GFP-14-3-3β; [9]): -0.1721 log2

LARP4
Difference (log2), PP1 vs untreated [1, 10]: 0.983 log2
Difference (log2), untreated vs GFP (GFP-14-3-3β; [11]): -0.1959 log2

CD44
Difference (log2), PP1 vs untreated [1, 4]: -2.392 log2
Difference (log2), untreated vs GFP (GFP-14-3-3β; [5]): 0.8931 log2

GEMIN5
Difference (log2), PP1 vs untreated [1, 12]: 1.609
Difference (log2), untreated vs GFP (GFP-14-3-3β; [13]): -0.2087

CEP170
Difference (log2), PP1 vs untreated [1, 8]: 0.4617 log2
Difference (log2), untreated vs GFP (GFP-14-3-3β; [9]): 2.101 log2

GCN1L1
Difference (log2), PP1 vs untreated [1, 8]: 0.3397 log2
Difference (log2), untreated vs GFP (GFP-14-3-3β; [9]): 0.08 log2
